Experimental data: patent publication US20040086901A1, “Database for analyzing gene function and method of analyzing gene function by dspa” (priority 2000, published 2004)

What was measured:
Type in all cases: cell-based, mouse
[1] = test system: NIH3T3 cells overexpressing ERK-DN; assay: MTT cell viability, ERK-DN overexpressing cells vs parental line; conditions: ERK-DN high-expressing cells / parental cell line, 3 to 4 days
Description: (§1) With regard to the function-known genes, the genes shown in the left column of Table 2 were used. With regard to the drugs, those shown in Table 1 were dissolved in DMSO to an extent of 100-fold of the maximum concentration for the search of the drugs and used. With regard to the cells, incubated NIH3T3 or ras-NIH3T3 cells were used.
(§2) Full-length cDNA of each function-known genes was incorporated into an expression vector (pRc-CMV, etc.) and transfected into NIH3T3 cells by a common method. Transformed cells were isolated using the resistance to G-418 as an index and the expression of the transfected gene in each cell was investigated by Western blotting method to select a highly expressing line.
(§3) Cell viabilities were measured according to the following procedures.
(§4) 1) From the 2nd to the 11th rows of a 96-well plate were filled with DMEM (50 μl). The 12th row was filled with 100 μl of DMEM.
(§5) 2) The 1st row was filled with 98 μl of DMEM.
(§6) 3) Drugs (2 μl each) were added into the 1st row.
(§7) 4) Continuous double-dilution was conducted from the 1st to the 9th rows. Fifty μl were taken out from the 9th row and discarded. The plate was preserved in a CO2 incubator.
(§8) 5) Cells (each high-expressing cells and the parental cell line) were detached from the medium using a trypsin solution, suspended in 10% CS-DMEM and transferred to a test tube and cell numbers (cell/ml) were counted.
(§9) 6) The cells were diluted to a concentration of 1×10^5 cells/ml, and 50 μl of the cell suspension were added to the 1st to the 11th rows of the plate followed by gently stirring.
(§10) 7) The plate was transferred to the CO2 incubator and incubated for 3 to 4 days.
(§11) 8) MTT (5 mg/ml in PBS) (10 μl) was added to the 1st to the 12th rows of the plate and incubated in the CO2 incubator at 37° C. for 4 hours.
(§12) 9) A reaction stop solution (0.04N HCl in isopropanol) (150 μl) was added followed by mixing well and being allowed to stand at room temperature for about 2 hours.
(§13) 10) Coloration of formazan which was a metabolite of the MTT dye was measured using a microplate reader. The measurement wavelength was 574 nm and the reference wavelength was 655 nm. The 10th and the 11th rows of the plate were 100% controls and the 12th row was a 0% control.
(§14) As an index for the sensitivity of highly gene-expressing cells and the parental cell line to various drugs, each of the IC40 values thereof was specified and ratios of the IC40 values were calculated. […] After that, logarithmic values of ratios of IC40 values were calculated from each gene.

[2] = test system: NIH3T3 cells overexpressing CaMKIIa-Active; assay: MTT cell viability, CaMKIIa-Active overexpressing cells vs parental line; conditions: CaMKIIa-Active high-expressing cells / parental cell line, 3 to 4 days
Description: as §1, §2, §3, §4, §5, §6, §7, §8, §9, §10, §11, §12, §13
(§15) As an index for the sensitivity of highly gene-expressing cells and the parental cell line to various drugs, each of the IC40 values thereof was specified and ratios of the IC40 values were calculated. FIG. 2 and FIG. 3 are the examples where ratios of IC40 values were calculated from a curve showing the dependency on the concentration of the chemical versus the viability. After that, logarithmic values of ratios of IC40 values were calculated from each gene.

[3] = test system: NIH3T3 cells overexpressing HSP9O; assay: MTT cell viability, HSP9O overexpressing cells vs parental line; conditions: HSP9O high-expressing cells / parental cell line, 3 to 4 days
Description: as §1, §2, §3, §4, §5, §6, §7, §8, §9, §10, §11, §12, §13, §15

[4] = test system: NIH3T3 cells overexpressing RhoA-DN; assay: MTT cell viability, RhoA-DN overexpressing cells vs parental line; conditions: RhoA-DN high-expressing cells / parental cell line, 3 to 4 days
Description: as §1, §2, §3, §4, §5, §6, §7, §8, §9, §10, §11, §12, §13, §14

[5] = test system: NIH3T3 cells overexpressing C/EBPa; assay: MTT cell viability, C/EBPa overexpressing cells vs parental line; conditions: C/EBPa high-expressing cells / parental cell line, 3 to 4 days
Description: as §1, §2, §3, §4, §5, §6, §7, §8, §9, §10, §11, §12, §13, §14

[6] = test system: NIH3T3 cells overexpressing Cip-1; assay: MTT cell viability, Cip-1 overexpressing cells vs parental line; conditions: Cip-1 high-expressing cells / parental cell line, 3 to 4 days
Description: as §1, §2, §3, §4, §5, §6, §7, §8, §9, §10, §11, §12, §13, §14

[7] = test system: NIH3T3 cells overexpressing C/EBPb; assay: MTT cell viability, C/EBPb overexpressing cells vs parental line; conditions: C/EBPb high-expressing cells / parental cell line, 3 to 4 days
Description: as §1, §2, §3, §4, §5, §6, §7, §8, §9, §10, §11, §12, §13, §14

Molecule	logarithmic value of ratio of IC40 values [1]	logarithmic value of ratio of IC40 values [2]	logarithmic value of ratio of IC40 values [3]	logarithmic value of ratio of IC40 values [4]	logarithmic value of ratio of IC40 values [5]	logarithmic value of ratio of IC40 values [6]	logarithmic value of ratio of IC40 values [7]
sodium vanadate	0.00	0.01	0.02	−0.12	−0.02	0.00	–
C/C=C(/C)C(=O)O[C@H]1C(C)=C2[C@H]([C@@H]1OC(=O)CCCCCCC)[C@@](C)(OC(C)=O)C[C@H](OC(=O)CCC)[C@@]1(O)[C@H]2OC(=O)[C@@]1(C)O [Thapsigargin, thapsigargin]	−0.15	0.03	0.09	0.06	−0.09	0.04	0.29
C=C[C@]1(C)CC[C@@H](C(=C)C)C[C@H]1C(=C)C [b-elemene, β-elemene]	0.33	–	0.05	–	0.00	0.00	0.50
CN[C@@H]1C[C@H]2O[C@@](C)([C@@H]1OC)n1c3ccccc3c3c4c(c5c6ccccc6n2c5c31)C(=O)NC4 [Staurosporine]	–	−0.04	0.22	0.14	–	–	−0.23
C[C@@H]1C[C@@H]([C@H](O)CC2CC(=O)NC(=O)C2)C(=O)[C@@H](C)C1 [CHX, cycloheximide]	0.08	−0.09	0.07	0.22	0.00	1.77	0.37
O=[As]O [NaAsO2, sodium arsenite]	0.16	0.02	0.10	0.00	−0.40	0.30	0.41
Nc1nc2nc[nH]c2c(=S)[nH]1 [6-TG, 6-thioguanine]	–	0.62	0.57	0.41	0.00	0.47	–
CC(C)(C)C(=O)Oc1ccc(S(=O)(=O)Nc2ccccc2C(=O)NCC(=O)O)cc1 [compound 5046]	–	0.35	0.52	–	–	−0.14	0.17
O=c1c(-c2ccc(O)cc2)coc2cc(O)cc(O)c12 [Genistein, genistein]	0.00	0.23	0.41	0.00	−0.43	–	0.19
